What was measured:
[1] = tested on: human blood mononuclear cells (MNCs); experiment: Cell viability assay; format: cell-based; conditions: MNCs; 0.25 mM; Mean ± SEM, n = 3
[2] = biological target: T1, soybean 15-LOX (Glycine max, UniProt P08170); experiment: 15-LOX inhibition assay; format: biochemical; conditions: for 15-LOX assay Inhibition (%) at 0.25 mM / 15-LOX assay IC50 (μM) / IC50: Mean ± SEM, n = 3; for IC50: read-out: 15-LOX assay IC50; for inhibition at 250 µM: read-out: 15-LOX assay Inhibition (%) at 0.25 mM
T1 sequence (P08170 1-839): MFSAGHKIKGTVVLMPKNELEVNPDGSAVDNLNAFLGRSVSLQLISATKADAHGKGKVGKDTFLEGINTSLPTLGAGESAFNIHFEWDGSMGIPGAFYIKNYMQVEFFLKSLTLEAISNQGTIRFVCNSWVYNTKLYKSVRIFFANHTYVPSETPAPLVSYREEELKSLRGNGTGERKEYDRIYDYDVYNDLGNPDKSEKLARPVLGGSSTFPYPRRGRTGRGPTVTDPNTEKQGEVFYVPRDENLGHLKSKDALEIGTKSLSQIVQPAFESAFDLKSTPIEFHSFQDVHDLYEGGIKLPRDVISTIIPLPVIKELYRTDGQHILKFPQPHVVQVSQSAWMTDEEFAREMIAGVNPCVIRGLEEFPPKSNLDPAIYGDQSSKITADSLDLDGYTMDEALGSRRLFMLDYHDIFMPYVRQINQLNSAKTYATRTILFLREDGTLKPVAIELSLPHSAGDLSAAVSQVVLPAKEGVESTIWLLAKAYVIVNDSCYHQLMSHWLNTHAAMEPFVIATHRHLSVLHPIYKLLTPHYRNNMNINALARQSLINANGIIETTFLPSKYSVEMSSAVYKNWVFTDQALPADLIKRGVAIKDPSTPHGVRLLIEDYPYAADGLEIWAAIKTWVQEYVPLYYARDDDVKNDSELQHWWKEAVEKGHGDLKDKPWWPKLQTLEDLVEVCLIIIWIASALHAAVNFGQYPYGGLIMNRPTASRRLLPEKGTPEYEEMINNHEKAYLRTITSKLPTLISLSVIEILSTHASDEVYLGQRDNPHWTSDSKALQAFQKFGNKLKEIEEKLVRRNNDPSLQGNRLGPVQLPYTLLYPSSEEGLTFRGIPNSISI

[3] = tested on: LOX; conditions: LOX inhibition; cited from earlier work
[4] = Cell viability assay; format: cell-based, human; conditions: human, human blood mononuclear cells (MNCs), pH 7.4

For `CCn1c(SC(C)C(=O)Nc2c(C)cccc2C)nnc1C1CCN(C(=O)Nc2ccccc2)CC1` (centres unmarked) [7k, 2-(5-(1-Phenylcarbamoylpiperdine-4-yl)-4-ethyl-4H-1,2,4-triazol-3-ylthio)-N-2,6-dimethylphenylpropanamide], the “MTT assay Cell viability (%) at 0.25 mM” value [1] was 75.67 ± 2.8%, the “15-LOX assay Inhibition (%) at 0.25 mM” value [2] was 56.49 ± 1.59% and the “15-LOX assay IC50 (μM)” value [2] was “inactive”. For the same compound, the IC50 [2] was > 200 µM.

In the case of `Cc1ccc(NN=C2C(=N)N(c3ccc(S(N)(=O)=O)cc3)N=C2N)cc1` [ii, 4-{3-amino-4-[(4-methylphenyl)-hydrazono]-5-imino-4,5-dihydropyrazol-1-yl}-benzenesulfonamide], the IC50 [3] is given as 1.92 ± 0.01 µM.

In the case of `O=c1cc(-c2ccccc2)oc2cc(O)c(O)c(O)c12` [Baicalein, reference compound], the inhibition at 250 µM [2] is reported as 93.8 ± 1.27%.

`O=P1(N(CCCl)CCCl)NCCCO1` (centres unmarked) [Cyclophosphamide, reference compound] showed a viability at 2 h, 0.25 mM [4] of 58.5 ± 2.6%.

For `COc1ccc(-c2csc3nc(-c4ccccc4)c(NC(C)(C)CC(C)(C)C)n23)cc1` [i, 3-(4-methoxyphenyl)-N-(2,4,4-trimethylpentane-2-yl)-6-phenylimidazo [2,1-b]thiazol-5-amine], the IC50 [3] is given as 11.5 ± 0.78 µM.

`O=c1c(O)c(-c2ccc(O)c(O)c2)oc2cc(O)cc(O)c12` [Quercetin, reference compound] showed an inhibition at 250 µM [2] of 96.6 ± 1.24%.

For `CCn1c(SC(C)C(=O)Nc2cc(C)cc(C)c2)nnc1C1CCN(C(=O)Nc2ccccc2)CC1` (centres unmarked) [7m, 2-(5-(1-Phenylcarbamoylpiperdine-4-yl)-4-ethyl-4H-1,2,4-triazol-3-ylthio)-N-3,5-dimethylphenylpropanamide], the “MTT assay Cell viability (%) at 0.25 mM” value [1] was 78.24 ± 2.7%, the “15-LOX assay Inhibition (%) at 0.25 mM” value [2] was 57.37 ± 1.46% and the “15-LOX assay IC50 (μM)” value [2] was “inactive”. For the same compound, the IC50 [2] was > 200 µM.

Compound `COc1cc(/C=C/C(=O)CC(=O)/C=C/c2ccc(O)c(OC)c2)ccc1O` [Curcumin, reference compound] has a viability at 2 h, 0.25 mM [4] of 71.8 ± 2.8%.

From PMC11401107 (Heliyon, 2024)
